Assay results from publication PMC9041313 (RSC Advances, 2021).

Target: T1, human MAGL (hMAGL) (Homo sapiens, UniProt Q99685)
T1 sequence (Q99685 1-303): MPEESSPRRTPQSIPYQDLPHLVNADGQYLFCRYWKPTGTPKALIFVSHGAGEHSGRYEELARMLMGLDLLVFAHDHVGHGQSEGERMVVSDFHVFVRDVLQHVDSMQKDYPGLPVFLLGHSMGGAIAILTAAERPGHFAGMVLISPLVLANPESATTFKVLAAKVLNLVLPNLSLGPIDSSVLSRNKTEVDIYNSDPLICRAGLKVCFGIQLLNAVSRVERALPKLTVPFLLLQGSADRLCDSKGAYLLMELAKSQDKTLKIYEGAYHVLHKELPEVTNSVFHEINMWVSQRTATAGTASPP
Test: Human MAGL assay
Format: biochemical
Conditions: 10 μM compound concentration

8-prenylnaringenin [NP-2]
inhibition% against hMAGL: over 40%
